The subject of assay [1] is GdG-3 (RNA, riboswitch) GGACAUACAAUCGCGUGGAUAUGGCACGCAAGAUCCCGCCGGGCACCGUAAAUGUCCGACUAUGUCC
Briefly: ITC. Particulars: 100 mM KCl, 20 mM MgCl2; 50 mM K+-Hepes pH 7.5, 30 °C; apparent.

The test system of assay [2] is Wild-type G-box B. subtilis xpt–pbuX (xpt) (RNA, riboswitch) GGACAUAUAAUCGCGUGGAUAUGGCACGCAAGUUUCUACCGGGCACCGUAAAUGUCCGACUAUGUCC
Briefly: ITC. Particulars: 100 mM KCl, 20 mM MgCl2; 50 mM K+-Hepes pH 7.5, 30 °C; apparent.

Regarding `Nc1nc2[nH]cnc2c(=O)[nH]1`, the “KD,G” value in assay [1] turned out to be 1200 ± 700 µM.

Consider `Nc1nc2c(ncn2[C@@H]2O[C@H](CO)[C@@H](O)[C@H]2O)c(=O)[nH]1`, for which the “KD,rG” value in assay [1] was 121 ± 8 µM.

In the case of `Nc1nc2c(ncn2[C@H]2C[C@H](O)[C@@H](CO)O2)c(=O)[nH]1`, the “KD,dG” value in assay [1] is 39 ± 1 µM; in assay [2], 12 ± 1 µM.

Source of the values: publication PMC2997738 (2008).
